Measured values from article PMC12078333, “Pharmacokinetic evaluation and bioavailability of KPT-335 (Verdinexor) in cats” (Frontiers in Veterinary Science, 2025).
Like-named read-outs stand apart in the source and are kept apart here.

Test: Pharmacokinetics study of KPT-335 in cats (i.v. injection, p.o. capsules and tablets; UPLC-MS/MS, non-compartmental analysis)
Format: in vivo
Conditions: both sexes, plasma, cats; for AUC(0-t): read-out: AUClast; for AUC(0-inf): read-out: AUCINF_obs; for Cmax: read-out: Cmax
Experimental: In this study, a parallel trial design was employed, 42 adult domestic cats (21 males and 21 females), aged 1 to 2 years and weighing 2.5 ± 0.25 kg. Cats were grouped by random number, with half male and female in each group, and all cats were determined to be systemically healthy during an initial screening visit 1 week prior to the experiment. They were acclimatized to the laboratory environment for 7 days before the study commenced. During this period, they were kept in solitary cages with free access to water. Cats in the fasting group were deprived of food for 12 h prior to and 2 h following drug administration, while those in the feeding group were fed twice a day. Food and water sources were consistent throughout the trail. During and at the end of the experiment, we systematically assessed the adverse reactions by recording parameters such as body weight, behavior, and coat gloss in all test cats both before and after the trial. These observations were conducted to evaluate whether any adverse reactions occurred. All procedures were reviewed and approved by the Institutional Animal Care and Use Committee of China Agricultural University (11305-23-E-002).
The UPLC-MS/MS system utilized a UPLC 1290 (Agilent) paired with a Phenomenex Kinetex C18 column (50 mm × 2.1 mm, 2.6 μm) for separation at a flow rate of 0.3 mL/min. The chromatographic mobile phase comprised water (A) and acetonitrile (B), both containing 0.1% formic acid. The gradient elution program was as follows: from 0.5 to 2.5 min, 10 to 95% B; from 2.5 to 4.5 min, 95% B; from 4.5 to 4.6 min, 95 to 10% B; and from 4.6 to 6.0 min, 10% B. The injection volume was 2 μL.
For mass spectrometry, an Agilent 6,475-LC-TQ equipped with an electrospray ion source was used. Multiple Reaction Monitoring (MRM) was selected to quantify KPT-335 in the positive ion mode. The ion transitions monitored were m/z 443.1 → 334.0 and 443.1 → 110.1 for KPT-335, and m/z 444.1 → 334.0 for the internal standard (IS). The cone voltage and collision energy were optimized for KPT-335 and the IS individually, set at 160 V and 25 eV, respectively. The optimized parameters for the instrument included an ion source temperature of 350°C, solvent removal temperature of 320°C, capillary voltage of 3.0 kV, and a solvent gas flow rate of 300 L/h.
The method was developed based on prior research conducted in the laboratory ([16]) and validated in accordance with international guidelines ([17]). The calibration concentration range for KPT-335 spanned from 0.5 to 100 ng/mL, with a lower limit of quantification (LLOQ) set at 0.5 ng/mL. The squared correlation coefficient (R^2) values exceeded 0.999, indicating high linearity.
For sample preparation, 100 μL of plasma was mixed with 10 μL of internal standard (IS) and 900 μL of acetonitrile, followed by vortexing for 2 min. The mixture was then centrifuged at 13,400 × g at 4°C for 10 min. The supernatant was filtered through a 0.22 μm organic membrane, and the resulting sample was analyzed using UPLC-MS/MS.
Cats were divided into seven groups, with six cats in each group. In the intravenous (i.v.) group (Group 1), cats received an injection of KPT-335 at a dosage of 1 mg/kg body weight (BW), administered via a bolus through a venous infusion needle. For the oral (p.o.) administration, cats were given capsules in a fasting state at doses of 0.2 mg/kg BW (Group 2), 1 mg/kg BW (Group 3), and 2 mg/kg BW (Group 4). Additionally, tablets were administered at 1 mg/kg BW (fasting, Group 5), 1 mg/kg BW (Group 6), and 2 mg/kg BW (Group 7) in a feeding state, followed by 3 mL of water delivered with a syringe.
For the p.o. administration, blood samples of 1.5 mL were collected via the brachial cephalic vein prior to administration and at 0.167, 0.333, 0.5, 0.75, 1, 1.5, 2, 4, 6, 8, 12, 24, 32, and 48 h post-administration. […]

[1] = cat, iv, 1 mg/kg, i.v. 1 mg/kg BW, mean, read-out: Plasma concentration Mean
[2] = cat, iv, 1 mg/kg, i.v. 1 mg/kg BW, mean
[3] = cat, po, 0.2 mg/kg, capsule p.o. 0.2 mg/kg BW, mean, read-out: Plasma concentration Mean
[4] = cat, po, 0.2 mg/kg, capsule p.o. 0.2 mg/kg BW, mean
[5] = cat, po, 1 mg/kg, capsule p.o. 1 mg/kg BW, mean, read-out: Plasma concentration Mean
[6] = cat, po, 1 mg/kg, capsule p.o. 1 mg/kg BW, mean
[7] = cat, po, 1 mg/kg, capsule p.o. 1 mg/kg BW, individual cats 1-6, read-out: Plasma concentration
[8] = cat, po, 1 mg/kg, tablet p.o. 1 mg/kg BW after fasting, individual cats 1-6, read-out: Plasma concentration
[9] = cat, po, 1 mg/kg, tablet p.o. 1 mg/kg BW after fasting, mean, read-out: Plasma concentration Mean
[10] = cat, po, 1 mg/kg, tablet p.o. 1 mg/kg BW after fasting, mean
[11] = cat, po, 1 mg/kg, tablet p.o. 1 mg/kg BW after feeding, mean, read-out: Plasma concentration Mean
[12] = cat, po, 1 mg/kg, tablet p.o. 1 mg/kg BW after feeding, mean
[13] = cat, po, 2 mg/kg, capsule p.o. 2 mg/kg BW, mean, read-out: Plasma concentration Mean
[14] = cat, po, 2 mg/kg, capsule p.o. 2 mg/kg BW, mean
[15] = cat, po, 2 mg/kg, tablet p.o. 2 mg/kg BW after feeding, mean, read-out: Plasma concentration Mean
[16] = cat, po, 2 mg/kg, tablet p.o. 2 mg/kg BW after feeding, mean
[17] = cat, po, 2 mg/kg, tablet p.o. 2 mg/kg BW after feeding, individual cats 1-6, read-out: Plasma concentration
[18] = iv, 1 mg/kg, i.v., Injection, 1 mg/kg BW
[19] = po, 0.2 mg/kg, p.o., Capsule, Fasting, 0.2 mg/kg BW

## O=C(/C=C\n1cnc(-c2cc(C(F)(F)F)cc(C(F)(F)F)c2)n1)NNc1ccccn1 [KPT-335]
cat, iv, 1 mg/kg, i.v. 1 mg/kg BW, 0.083 h, mean
  concentration at 0.083 h: 844 ng/mL
[1]
  concentration at 0.167 h: 812 ng/mL
  concentration at 1 h: 531 ng/mL
  concentration at 2 h: 441 ng/mL
  concentration at 4 h: 255 ng/mL
cat, iv, 1 mg/kg, i.v. 1 mg/kg BW, 0.25 h, mean
  concentration at 0.25 h: 767 ng/mL
[2]
  concentration at 0.33 h: 733 ng/mL
  concentration at 0.5 h: 667 ng/mL
  concentration at 0.75 h: 526 ng/mL
  concentration at 8 h: 95.9 ng/mL
  concentration at 12 h: 39.5 ng/mL
  concentration at 24 h: 10.2 ng/mL
  concentration at 32 h: 4.86 ng/mL
cat, other: i.v. and p.o., i.v. and p.o. routes, all groups, read-out: half-life (T1/2), range over all groups
  half-life: 210 to 420 min
[3]
  concentration at 0.167 h: 1.34 ng/mL
  concentration at 1 h: 21.5 ng/mL
  concentration at 1.5 h: 22.9 ng/mL
  concentration at 2 h: 22.4 ng/mL
  concentration at 4 h: 17.9 ng/mL
[4]
  concentration at 0.33 h: 6.56 ng/mL
  concentration at 0.5 h: 13.6 ng/mL
  concentration at 0.75 h: 20.8 ng/mL
  concentration at 6 h: 15.5 ng/mL
  concentration at 8 h: 13.9 ng/mL
  concentration at 12 h: 9.36 ng/mL
  concentration at 24 h: 3.49 ng/mL
  concentration at 32 h: 3.58 ng/mL
[5]
  concentration at 0.167 h: 4.97 ng/mL
  concentration at 1 h: 233 ng/mL
  concentration at 1.5 h: 250 ng/mL
  concentration at 2 h: 227 ng/mL
  concentration at 4 h: 153 ng/mL
  concentration at 48 h: 0.84 ng/mL
[6]
  concentration at 0.33 h: 39.5 ng/mL
  concentration at 0.5 h: 100 ng/mL
  concentration at 0.75 h: 174 ng/mL
  concentration at 6 h: 79.2 ng/mL
  concentration at 8 h: 53.1 ng/mL
  concentration at 12 h: 24.6 ng/mL
  concentration at 24 h: 5.57 ng/mL
  concentration at 32 h: 1.82 ng/mL
[7]
  concentration at 1 h: 161 ng/mL
  concentration at 48 h: 0.69 ng/mL
cat, po, 1 mg/kg, p.o., Tablet, Feeding, 1 mg/kg BW
  AUC(0-t): 2270 ± 1250 ng·h/mL
[8]
  concentration at 0.167 h: 5.51 ng/mL
  concentration at 2 h: 208 ng/mL
  concentration at 4 h: 209 ng/mL
[9]
  concentration at 0.167 h: 5.66 ng/mL
  concentration at 1 h: 227 ng/mL
  concentration at 1.5 h: 235 ng/mL
  concentration at 2 h: 216 ng/mL
  concentration at 4 h: 187 ng/mL
  concentration at 48 h: 2.26 ng/mL
[10]
  concentration at 0.33 h: 77.5 ng/mL
  concentration at 0.5 h: 204 ng/mL
  concentration at 0.75 h: 223 ng/mL
  concentration at 6 h: 154 ng/mL
  concentration at 8 h: 121 ng/mL
  concentration at 12 h: 74.1 ng/mL
  concentration at 24 h: 15.5 ng/mL
  concentration at 32 h: 5.11 ng/mL
[11]
  concentration at 0.167 h: 13.8 ng/mL
  concentration at 1 h: 334 ng/mL
  concentration at 1.5 h: 321 ng/mL
  concentration at 2 h: 304 ng/mL
  concentration at 4 h: 211 ng/mL
  concentration at 48 h: 1.25 ng/mL
[12]
  concentration at 0.33 h: 79.1 ng/mL
  concentration at 0.5 h: 148 ng/mL
  concentration at 0.75 h: 257 ng/mL
  concentration at 6 h: 146 ng/mL
  concentration at 8 h: 107 ng/mL
  concentration at 12 h: 52.1 ng/mL
  concentration at 24 h: 7.74 ng/mL
  concentration at 32 h: 3.37 ng/mL
[13]
  concentration at 0.167 h: 0.68 ng/mL
  concentration at 1 h: 206 ng/mL
  concentration at 1.5 h: 272 ng/mL
  concentration at 2 h: 269 ng/mL
  concentration at 4 h: 187 ng/mL
  concentration at 48 h: 1.28 ng/mL
[14]
  concentration at 0.33 h: 8.76 ng/mL
  concentration at 0.5 h: 52.5 ng/mL
  concentration at 0.75 h: 152 ng/mL
  concentration at 6 h: 111 ng/mL
  concentration at 8 h: 74.1 ng/mL
  concentration at 12 h: 40.1 ng/mL
  concentration at 24 h: 9.56 ng/mL
  concentration at 32 h: 4.07 ng/mL
cat, po, 2 mg/kg, p.o., Tablet, Feeding, 2 mg/kg BW
  AUC(0-t): 3000 ng·h/mL
[15]
  concentration at 0.167 h: 16.9 ng/mL
  concentration at 1 h: 464 ng/mL
  concentration at 1.5 h: 555 ng/mL
  concentration at 2 h: 516 ng/mL
  concentration at 4 h: 333 ng/mL
[16]
  concentration at 0.33 h: 95.9 ng/mL
  concentration at 0.5 h: 222 ng/mL
  concentration at 0.75 h: 389 ng/mL
  concentration at 6 h: 187 ng/mL
  concentration at 8 h: 126 ng/mL
  concentration at 12 h: 45 ng/mL
  concentration at 24 h: 6.55 ng/mL
  concentration at 32 h: 2.28 ng/mL
[17]
  concentration at 1 h: 288 ng/mL
  concentration at 1.5 h: 366 ng/mL
  concentration at 2 h: 303 ng/mL
cat, po, all p.o. groups, read-out: Tmax after oral (p.o.) administration
  Tmax: 1 to 2.5 h
cat, po, p.o. capsules 0.2–2 mg/kg BW, read-out: absolute bioavailability, capsule group range
  bioavailability: 28.9 to 44.7%
cat, po, p.o. tablets 1–2 mg/kg BW, read-out: absolute bioavailability, tablet group range
  bioavailability: 47.3 to 75.9%
iv, 1 mg/kg, Injection, 1 mg/kg BW
  MRT last: 4.73 ± 1.1 h
[18]
  AUC(0-inf): 3200 ± 851 ng·h/mL
  AUC(0-t): 3170 ± 842 ng·h/mL
  Cmax: 851 ± 285 ng/mL
iv, 1 mg/kg, i.v., Injection, 1 mg/kg BW, read-out: Lambda_z (converted)
  k el: 5e-05 s⁻¹
po, 0.2 mg/kg, Capsule, Fasting, 0.2 mg/kg BW
  MRT last: 8.66 ± 2.71 h
[19]
  AUC(0-inf): 314 ± 220 ng·h/mL
  AUC(0-t): 278 ± 158 ng·h/mL
  Cmax: 27.6 ± 9.02 ng/mL
